Measurements published in US8143226B2, “Tyrosine kinase receptor antagonists and methods of treatment for breast cancer” (The Regents of the University of California, priority 2005, dated 2012).

Assays:
[1] = molecular target: T1, rodent HER2/neu receptor (Rattus norvegicus, UniProt P06494); assay: Autophosphorylation of isolated HER2/neu (western blot); type: biochemical; settings: preincubation 20 minutes prior to 10 μM ATP
T1 construct: made in house; host or cells: MCNeuA mouse mammary carcinoma cells (MMTV/neu transgenic), partially purified by wheat germ agglutinin chromatography
Procedure: IGF-1 and HER2/neu receptors were partially purified by WGA chromatography of cells overexpressing the protein of interest. To isolate IGF-1R, CHO cells transfected with and overexpressing the human IGF-1R (CHOIGF-1R) were plated in T-150 flasks and grown in DMEM supplemented with 10% fetal calf serum (FCS) until 80% confluent. Cells were harvested in the basal state and solubilized in 50 mM HEPES, 10% glycerol, 1% Triton X-100, 150 mM NaCl, 5 μM EGTA, 0.24 mg/ml aminoethyl-benzensulfonyl fluoride (AEBSF), 10 μg/ml aprotinin, 25 mM benzamidine, 10 μg soybean trypsin inhibitor, and 5 μg/ml leuptin for one hour at 4° C. Samples were centrifuged for 60 minutes at 100,000 g and solubilized extract collected. Rodent HER2/neu receptors were collected from MCNeuA cells crown under identical conditions and processed similarly. […] WGA fractions containing RTK of interest were determined by SDS page and a western blot that employed antibodies against either the IGF-1R or HER2/neu as appropriate.
Autophosphorylation of HER2/neu in WGA preparations enriched in this RTK were determined in the absence of ligand. […] Following transfer to nitrocellulose membrane, receptor autophosphorylation was determined by a western blot that employed a phosphospecific antibody against the pNeu (Tyr1248) diluted 1:1000 in Superblock. […] Values were determined by scanning densitometry.

[2] = tested on: SH-SY5Y, SHEP and Kelly neuroblastoma cells; assay: CyQUANT assay for neuroblastoma cell growth; type: cell-based, human
Procedure: CyQUANT assay for cell growth. Cells were plated on four 96-well tissue culture plates, in DMEM/10% calf serum at a density of 8000 cells/well and incubated for 24 h. In one set of experiments, the medium was switched to serum free DMEM supplemented with 1% bovine serum albumin (to provide osmotic support). IGF-I (10 nM) was added to some samples on a daily basis for up to 3 days. […] The media from one plate was immediately removed, and the plate was frozen at −80° C. This plate served as the baseline for the experiment. Single plates were frozen at 24, 48, and 72 h following addition of drugs. DNA content of each well was quantified by staining with CyQUANT according to the manufacturer's instructions and measuring CyQUANT […] with a fluorimeter. Each condition was run in triplicate, and the experiment was repeated three times.

[3] = molecular target: T2, HER2 (Homo sapiens, UniProt P04626); assay: HER2 phosphorylation ELISA in MCF-7/HER2-18 cells; type: cell-based; settings: not stimulated
T2 construct: MCF-7 cells stably transfected with the full length HER2 cDNA (MCF-7/HER2-18); expressed in transfected cells; host or cells: MCF-7/HER2-18 (from Dr. Christopher Benz)
Procedure: RTK inhibitors were dissolved in DMSO and diluted with culture medium before being added to cells for 1.5 hour at 37° C. The final concentration of DMSO during the incubation was 0.3% . For some studies, cells were also stimulated with 3 nM IGF-I for 10 minutes at 37° C. Reactions were terminated by rapidly aspirating medium and washing cells three times with ice cold PBS. Cells were harvested and solubilized in 50 mM HEPES, 150 mM NaCl, 1% Triton X-100, 1 mM PMSF, and 2 mM vanadate for 1 hour at 4° C. Protein concentrations were determined by BCA assay (Pierce, Rockford, Ill.). […] Briefly, 10 μg lysate protein were added to triplicate wells in a 96-well plate coated with monoclonal antibody to the IGF-IR (IR3; 2 μg/ml), and incubated for 18 hours at 4° C. Plates were washed five times and then HRP-conjugated anti-phosphotyrosine antibody (0.3 μg/ml), diluted in Solution B (50 mM HEPES, pH 7.6, 150 mM NaCl, 0.05% Tween-20, 1 mM PMSF, 2 mM vanadate and 1 mg/ml bacitracin), was added for two hours at 22° C. Plates were washed five times prior to color development with TMB substrate, which was terminated with 1.0 M H3PO4. Values for receptor phosphorylation were determined by measuring absorbance at 450 nm.
HER2 phosphorylation was also determined by ELISA as above, using 2 μg of lysate protein per well and 2 μg/ml Herceptin as the capturing antibody.

[4] = tested on: AKT/PKB; assay: Akt/PKB phosphorylation in MCF-7/HER2-18 cells (western blot); type: cell-based, human
Procedure: […]. Enzyme linked immunosorbent assays (ELISA) for phosphorylated IGF-1R and HER2 IGF-1R phosphorylation was determined by ELISA as described previously for the insulin receptor [Youngren JF, Goldfine ID and Pratley RE: Decreased muscle insulin receptor kinase con-elates with insulin resistance in normoglycemic Pima Indians. Am J Physiol 273: E276-83, 1997]. Briefly, 10 μg lysate protein were added to triplicate wells in a 96-well plate coated with monoclonal antibody to the IGF-IR (IR3; 2 μg/ml), and incubated for 18 hours at 4° C. Plates were washed five times and then HRP-conjugated anti-phosphotyrosine antibody (0.3 μg/ml), diluted in Solution B (50 mM HEPES, pH 7.6, 150 mM NaCl, 0.05% Tween-20, 1 mM PMSF, 2 mM vanadate and 1 mg/ml bacitracin), was added for two hours at 22° C. Plates were washed five times prior to color development with TMB substrate, which was terminated with 1.0 M H3PO4. Values for receptor phosphorylation were determined by measuring absorbance at 450 nm.
Total protein extracts (10 μg), prepared as described above from cells cultured in the presence or absence of IGF-1 and/or RTK inhibitors, were subjeccted to SDS-PAGE and subsequently transferred to nitrocellulose membranes. […] Membranes were washed again and bound antibodies detected by enhanced chemiluminescence (Pierce). […]

[5] = tested on: MCF-7/HER2-18 cells; assay: Tamoxifen and/or NDGA growth inhibition of MCF-7/HER2-18 cells (CyQuant); type: cell-based; settings: Homo sapiens
Procedure: Cells were estrogen-starved for three days in DMEM containing 10% charcoal-[…]-stripped FCS (CDSS) prior to their plating in 96 well plates. Cells were plated in 100 μl of the same media, allowed to adhere overnight, and then were switched to DMEM+10% CDSS supplemented with 100 pM estrogen. […] The media and inhibitors were refreshed on day 3, the cultures were harvested on day 6, and a CyQuant assay was performed as described above.

[6] = single injection, mouse, intravenous; cited from earlier work

T2 sequence (P04626 23-1255): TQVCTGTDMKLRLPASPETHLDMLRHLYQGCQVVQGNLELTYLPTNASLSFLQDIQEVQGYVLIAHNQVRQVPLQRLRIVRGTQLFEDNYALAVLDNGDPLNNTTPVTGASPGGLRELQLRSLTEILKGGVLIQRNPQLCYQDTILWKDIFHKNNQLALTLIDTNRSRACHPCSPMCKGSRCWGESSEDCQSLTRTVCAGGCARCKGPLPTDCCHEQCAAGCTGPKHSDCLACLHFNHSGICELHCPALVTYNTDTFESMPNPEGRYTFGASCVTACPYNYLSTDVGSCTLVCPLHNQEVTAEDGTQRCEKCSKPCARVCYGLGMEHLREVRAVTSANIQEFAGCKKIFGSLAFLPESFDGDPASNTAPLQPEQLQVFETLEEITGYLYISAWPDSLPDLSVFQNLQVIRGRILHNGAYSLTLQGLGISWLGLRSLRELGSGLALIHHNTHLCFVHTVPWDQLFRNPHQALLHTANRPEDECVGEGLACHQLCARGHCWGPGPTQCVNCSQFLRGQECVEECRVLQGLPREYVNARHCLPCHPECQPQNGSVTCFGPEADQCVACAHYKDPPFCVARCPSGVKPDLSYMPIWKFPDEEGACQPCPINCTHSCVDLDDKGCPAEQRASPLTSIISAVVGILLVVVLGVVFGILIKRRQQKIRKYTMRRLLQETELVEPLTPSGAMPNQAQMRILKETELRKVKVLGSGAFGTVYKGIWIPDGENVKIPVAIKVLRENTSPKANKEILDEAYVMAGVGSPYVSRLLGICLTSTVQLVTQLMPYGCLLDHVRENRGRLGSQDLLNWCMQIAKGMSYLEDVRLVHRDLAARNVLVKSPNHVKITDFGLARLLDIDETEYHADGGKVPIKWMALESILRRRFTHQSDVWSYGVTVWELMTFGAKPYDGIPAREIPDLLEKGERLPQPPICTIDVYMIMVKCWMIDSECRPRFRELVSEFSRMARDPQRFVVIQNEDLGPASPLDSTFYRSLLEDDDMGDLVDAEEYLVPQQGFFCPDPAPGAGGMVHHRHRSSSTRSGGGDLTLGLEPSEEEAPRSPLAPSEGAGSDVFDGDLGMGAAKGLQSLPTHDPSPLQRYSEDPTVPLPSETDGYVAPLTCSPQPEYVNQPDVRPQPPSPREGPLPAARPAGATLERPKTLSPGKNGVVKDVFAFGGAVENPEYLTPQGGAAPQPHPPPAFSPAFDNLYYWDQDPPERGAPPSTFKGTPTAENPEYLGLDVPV
T1 sequence (P06494 23-1257): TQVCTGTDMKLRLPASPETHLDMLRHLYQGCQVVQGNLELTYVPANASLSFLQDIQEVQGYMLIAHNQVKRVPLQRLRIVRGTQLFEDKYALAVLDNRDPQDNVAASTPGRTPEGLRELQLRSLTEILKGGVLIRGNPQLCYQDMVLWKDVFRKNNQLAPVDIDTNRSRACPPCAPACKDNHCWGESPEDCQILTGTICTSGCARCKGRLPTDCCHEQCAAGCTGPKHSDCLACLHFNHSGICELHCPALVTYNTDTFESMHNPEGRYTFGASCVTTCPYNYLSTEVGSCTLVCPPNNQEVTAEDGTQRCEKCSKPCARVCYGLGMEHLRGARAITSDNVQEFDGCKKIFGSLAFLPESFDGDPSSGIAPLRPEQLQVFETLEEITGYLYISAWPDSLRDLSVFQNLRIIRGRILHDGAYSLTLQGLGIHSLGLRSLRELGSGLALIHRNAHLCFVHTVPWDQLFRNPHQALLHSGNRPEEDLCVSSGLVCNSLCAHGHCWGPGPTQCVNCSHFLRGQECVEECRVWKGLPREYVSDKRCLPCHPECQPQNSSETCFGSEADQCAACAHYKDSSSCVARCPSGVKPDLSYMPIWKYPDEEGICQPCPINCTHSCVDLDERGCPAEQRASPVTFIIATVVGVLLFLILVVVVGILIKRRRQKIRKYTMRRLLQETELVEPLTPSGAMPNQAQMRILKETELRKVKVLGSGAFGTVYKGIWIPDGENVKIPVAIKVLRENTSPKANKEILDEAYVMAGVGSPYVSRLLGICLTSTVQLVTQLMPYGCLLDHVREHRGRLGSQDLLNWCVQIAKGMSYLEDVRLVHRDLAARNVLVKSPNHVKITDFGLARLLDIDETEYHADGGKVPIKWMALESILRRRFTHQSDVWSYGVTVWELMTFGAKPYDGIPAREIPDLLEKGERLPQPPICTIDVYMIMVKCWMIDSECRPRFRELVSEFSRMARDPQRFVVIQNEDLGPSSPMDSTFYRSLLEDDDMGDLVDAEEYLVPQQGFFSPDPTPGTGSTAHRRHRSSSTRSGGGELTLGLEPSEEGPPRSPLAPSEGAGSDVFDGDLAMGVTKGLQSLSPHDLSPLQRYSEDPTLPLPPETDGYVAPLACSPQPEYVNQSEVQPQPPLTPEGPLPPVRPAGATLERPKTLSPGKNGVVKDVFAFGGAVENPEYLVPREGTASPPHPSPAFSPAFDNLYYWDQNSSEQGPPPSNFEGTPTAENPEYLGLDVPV

CC(Cc1ccc(O)c(O)c1)C(C)Cc1ccc(O)c(O)c1 (centres unmarked) [NDGA, nordihydroguaiaretic acid]
ATP-induced increase in ligand-independent HER2/neu autophosphorylation [1]: abolished | proliferation in serum-free media with 10 nM IGF-I ([2]; SH-SY5Y and Kelly cells, up to 72 h): inhibited proliferation | proliferation in medium containing 10% serum ([2]; SH-SY5Y and SHEP cells, up to 72 h): inhibited the proliferation | dose that completely blocks neuroblastoma growth in vitro ([2]; serum and serum-free conditions, several days): 15 to 30 µM | HER2 phosphorylation [3]: strongly inhibited | IC50 ([3]; read-out: half maximal effect on HER2 phosphorylation): ~30 µM | IGF-1 stimulated phosphorylation of AKT/PKB ([4]; 3 nM IGF-1): inhibited | level of phospho-AKT/PKB ([4]; absence of IGF-1): decreased | inhibition at 10 µM [5]: 9% | inhibition at 15 µM [5]: 38% | terminal half-life [6]: 2.25 h
